This note sets out measurements from US20020019991A1, “COMPOSITIONS CONTAINING AN ALPHA 1,2-FUCOSE LINKAGE AND USES THEREOF” (ABBOTT LABORATORIES, priority 1998, published 2002).

Test [1] deals with Vibrio cholerae 01 Ogawa strain 2995. In kind it is binding.
Test [2] relates to Enteropathogenic E. coli (EPEC). In kind it is binding, Escherichia coli.
Test [3] deals with Enterohemorrhagic Escherichia coli (EHEC) 0157:H7 strain 933. In kind it is binding.
The subject of the next test is V. cholerae. Put plainly: Competitive assay: inhibition of V. cholerae attachment to transfected CHO (α1-2 FT) cells, colony counting. In kind it is cell-based, Vibrio cholerae. Here is the method:
(§1) To determine whether 2′Fucosyllactose is an important chemical structure of the cell receptor for V. cholerae and enterohemorrhagic E. coli (EHEC), a competitive assay was set up. A volume of 400 ul of a suspension of transfected CHO (α1-2 FT) cells at a concentration of 4×10^5 cells/mL was placed in each well of an 8-well microchamber slide (Lab-Tek, Nunc, Inc. Naperville, Ill.). Cells were incubated overnight at 37° C. in a 5% CO2 atmosphere. A bacterial suspension of 1.5×10^8 of V. cholerae was added with either 0.5, 1, or 2 mg/mL of 2′fucosyllactose and incubated at 37° C. Wells were washed 6 times with PBS. Cells were detached with […] of triton x 100 and serial dilutions in TBS or McConkey agar plates were done for colony counting.

Test [4] has as its system enterohemorrhagic E. coli (EHEC). In words: Competitive assay: inhibition of EHEC attachment to transfected CHO (α1-2 FT) cells, colony counting. It is filed as cell-based, Escherichia coli. Here is the method:
as §1

With Lewis^x, in test [1], the “binding of V. cholerae to immobilized blood group antigen neoglycoprotein” value is on record as “stronger binding”. In test [2], the “binding of EPEC to immobilized blood group antigen neoglycoprotein” value is reported as “stronger binding”. Moreover, the “binding of EHEC to immobilized blood group antigen neoglycoprotein” value in test [3] is recorded as “stronger binding”.

For the compound `C[C@@H]1O[C@@H](O[C@H]2[C@H](O[C@H]3[C@H](O)[C@@H](O)C(O)O[C@@H]3CO)O[C@H](CO)[C@H](O)[C@@H]2O)[C@@H](O)[C@H](O)[C@@H]1O` (some centres unmarked) [2′fucosyllactose, 2′-fucosyllactose (Fucα1-2Galβ1-4Glc)], the “dose dependence of inhibition of bacterial cell attachment” value is on record as “dose-dependent inhibition” with V. cholerae (0.5, 1, or 2 mg/mL) and “dose-dependent inhibition” in test [4] (EHEC, 0.5, 1, or 2 mg/mL). Besides, the “inhibition of bacterial cell attachment” value in the test with V. cholerae (transfected CHO (α1-2 FT) cells, concentration as low as 0.5 mg/ml) is given as “significant inhibition”; in test [4] (EHEC, transfected CHO (α1-2 FT) cells, concentration as low as 0.5 mg/ml) it was “significant inhibition”. Also, in test [4] (EHEC versus V. cholerae, transfected CHO cells), the “inhibition of binding, EHEC compared with V. cholerae” value is “greater inhibition”.
